According to patent US20220160703A1, “TUMOR-SELECTIVE COMBINATION THERAPY” (The Board of Regents of The University of Texas System, priority 2019, published 2022):

Experiments:
[1] = test system: NQO1 positive tumor cell lines MC38, TC-1 and Ag104Ld; format: cell-based
Procedure: (FIG. 1A) NQO1 positive tumor cell lines MC38, TC-1 and Ag104Ld and NQO1 negative cell lines Panc02 and B16 grown in 48-well plates were treated with β-lap (0-8 μM) for a 3 hr followed by washing and replacing medium. Cell viability was determined by Sulforhodamine B (SRB) Assay 4 days later. […] (FIG. 1C) MC38 cells with CRISPR-based NQO1 Knockout (MC38 NQO1KO #5) planted in 96-well plates were exposed to β-lap for 3 hr and cell survival was assessed 48 hr later. […] (FIG. 1E) MC38 cells were exposed to a lethal dose of β-lap (4 μM) for indicated times, then stained with 7-AAD and Annexin V followed by flow cytometry analysis. […] (FIG. 1H) MC38 and B16 NQO1 #1 cells were exposed to β-lap for a 3 hr. Catalase (1000 U/ml) was added and cell survival was assessed 48 hr later. (FIG. 1I) C57BL/6 mice (n=5/group) were transplanted with MC38 cells and treated with β-lap (0.03 mg, 0.1 mg or 0.3 mg, intratumorally; or 25 mg/kg, i.v.) every other day for four times. […] Tumor growth was monitored twice a week.
(FIG. 8A) NQO1 expression in multiple murine tumor lines was immunoblotted as indicated. […] Drugs were removed and survival assessed 5 days later. (FIG. 8C) Relative H2O2 levels were assessed in various cells treated with β-lap for 3 h at the indicated doses using CellRox-Glo. […] (FIG. 8D) TC-1 cells exposure to β-lap for 12 h, later PARP-1 and Caspase-3 levels were analyzed by western blotting assay. […]
(FIGS. 14A-C) NQO1 cells MC38 (A) and TC-1 (B) and NQO1^− cells B16 (C) were treated for 2 h with various doses of IB-DNQ±DIC (50 μM). Drugs were removed and survival assessed 6 days later. […] (FIGS. 14E-F) Relative NAD^+ (E) or ATP (F) levels were assessed in TC-1 cells exposed to various doses of IB-DNQ for 2 h. […] Comet tail lengths in a.u. were monitored at indicated time; and DSBs quantified by γH2AX foci/nuclei using immunofluorescence at indicated time (FIG. 14H). […]
(FIG. 21A) Viability of murine cell lines following IB-DNQ treatment for 4 h. […] (FIGS. 21D-E) DNA double strand break was assessed via comet assay (FIG. 21D) and γH2AX foci/nuclei immunofluorescence (FIG. 21E). […]

A549 tumor = assay: A549 xenograft in immune-reconstituted C57BL/6 Rag1−/− mice; format: in vivo; details: β-lap 0.2 mg i.t. four times
Procedure: FIGS. 2A-F. β-Lap's antitumor effect is CD8^+ T cell dependent. (FIG. 2A) MC38 cells were subcutaneously transplanted into C57BL/6 WT (n=5-6/group) and Rag1 KO mice (n=5/group), respectively. Tumor bearing mice were treated with β-lap (0.3 mg, i.t.) every other day for four times. Numbers of tumor free mice after treatment were shown. (FIG. 2B) MC38 tumor bearing C57BL/6 mice (n=5/group) were treated with β-lap (0.3 mg, i.t.) every other day for four times. For CD8^+ T cell depletion, 200 μg of anti-CD8 antibodies were intraperitoneally injected four times at three days interval during the treatment. (FIG. 2C) TC-1 tumor bearing C57BL/6 mice (n=4-5/group) were treated with β-lap (0.1 mg, i.t.) for four times with or without anti-CD8 antibodies. (FIG. 2D) Naïve (n=5/group) and β-lap cured MC38 tumor free (n=7/group) C57BL/6 mice were rechallenged subcutaneously with 3×10^6 MC38 cells on the opposite site from the primary tumor 30 days after complete rejection, and tumor growth curve was monitored. […] Tumor growth was measured twice a week. Data are shown as mean±SEM from three independent experiments. **P<0.01, ***P<0.001, ****P<0.0001 determined by two-way ANOVA.
Immune reconstituted mouse models. […] Tumor volumes were measured at least twice weekly.

CC1(C)CCC2=C(O1)c1ccccc1C(=O)C2=O [β-lap, β-lapachone]
response to 3 h β-lap exposure (cell viability) ([1]; β-lap 0-8 μM, 3 hr, SRB 4 days later): sensitive | cell killing ([1]; β-lap 3 h ± DIC 50 μM, survival 5 days later): selectively killed | tumor growth without T cell transfer (A549 tumor; no OT-1 LN cells): only partially inhibited | tumors completely rejected (A549 tumor; with 2×10^6 OT-1 LN cells): 50%
